Source: the supplement of paper PMC10307832

Assays:
Test in all cases: relative viability (nuclei count vs DMSO), 5 days (fraction); higher = more cells survive
TGX 221 + Pemetrexed = compound: CC1=CN2C(=O)C=C(N=C2C(=C1)C(C)NC3=CC=CC=C3)N4CCOCC4 [TGX 221] + Nc1nc2[nH]cc(CCc3ccc(C(=O)N[C@@H](CCC(=O)O)C(=O)O)cc3)c2c(=O)[nH]1 [Pemetrexed] (partner 0.2 µM)
In short: (§1)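 Relative viability is defined as nuclei in treated wells over nuclei in vehicle wells. Duplicate plates were run and medians reported. Lung cancer cell lines in 1536-well plates were dosed by pin tool one day after seeding, with one drug or with a fixed anchor-drug dose plus five library-drug doses (not always all listed) in √10 steps, and nuclei were counted after 5 days.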

TGX 221 + Pictilisib = compound: CC1=CN2C(=O)C=C(N=C2C(=C1)C(C)NC3=CC=CC=C3)N4CCOCC4 [TGX 221] + CS(=O)(=O)N1CCN(Cc2cc3nc(-c4cccc5[nH]ncc45)nc(N4CCOCC4)c3s2)CC1 [Pictilisib] (partner 1 µM)
In short: as §1

[1] = compound: O=C(CCCCCCNC(=O)c1cnc(N(c2ccccc2)c2ccccc2)nc1)NO [Ricolinostat] + CC(=O)Nc1cccc(-n2c(=O)n(C3CC3)c(=O)c3c(Nc4ccc(I)cc4F)n(C)c(=O)c(C)c32)c1 [Trametinib] (partner 0.02 µM)
In short: as §1

[2] = compound: C1=CC=C(C(=C1)C2=CC=C(C=C2)C3=CSC4=C3C(=C(C(=O)N4)C#N)O)O + O=C(c1cc(Cc2n[nH]c(=O)c3ccccc23)ccc1F)N1CCN(C(=O)C2CC2)CC1 [Olaparib] (partner 8 µM)
In short: as §1

| Cell Line | relative viability (TGX 221 + Pemetrexed; first compound 0.08 µM) | relative viability (TGX 221 + Pemetrexed; first compound 0.253 µM) | relative viability (TGX 221 + Pemetrexed; first compound 0.8 µM) | relative viability (TGX 221 + Pemetrexed; first compound 2.53 µM) | relative viability (TGX 221 + Pemetrexed; first compound 8 µM) | relative viability (TGX 221 + Pictilisib; first compound 0.08 µM) | relative viability (TGX 221 + Pictilisib; first compound 0.253 µM) | relative viability (TGX 221 + Pictilisib; first compound 0.8 µM) | relative viability (TGX 221 + Pictilisib; first compound 2.53 µM) | relative viability (TGX 221 + Pictilisib; first compound 8 µM) | relative viability ([1]; first compound 0.08 µM) | relative viability ([1]; first compound 0.253 µM) | relative viability ([1]; first compound 0.8 µM) | relative viability ([1]; first compound 2.53 µM) | relative viability ([2]; first compound 0.08 µM) | relative viability ([2]; first compound 0.253 µM) | relative viability ([2]; first compound 0.8 µM) | relative viability ([2]; first compound 2.53 µM) | relative viability ([2]; first compound 8 µM) |
| --- | --- | --- | --- | --- | --- | --- | --- | --- | --- | --- | --- | --- | --- | --- | --- | --- | --- | --- | --- |
| EMC-BAC-2 | 0.468 | 0.43 | 0.428 | 0.464 | 0.463 | 0.535 | 0.523 | 0.535 | 0.471 | 0.535 | 0.809 | 0.895 | 0.819 | 0.74 | 0.48 | 0.58 | 0.438 | 0.484 | 0.496 |
| HARA | 0.216 | 0.234 | 0.258 | 0.3 | 0.221 | 0.538 | 0.469 | 0.372 | 0.361 | 0.585 | 0.704 | 0.804 | 0.529 | 0.644 | 0.687 | 1.55 | 0.727 | 1.1 | 0.762 |
| NCI-H1944 | – | 0.552 | 0.533 | 0.6 | 0.562 | 0.335 | 0.339 | 0.361 | 0.342 | 0.335 | 0.46 | 0.469 | 0.442 | 0.407 | 0.465 | 0.433 | 0.386 | 0.464 | 0.373 |
| COR-L 105 | 1.1 | 1.08 | 0.857 | 1 | 0.81 | 0.458 | 0.412 | 0.424 | 0.469 | 0.421 | 0.376 | 0.471 | 0.547 | 0.543 | 0.695 | 0.793 | 1.03 | 0.688 | 0.859 |
| 201T | 0.324 | 0.373 | 0.318 | 0.351 | 0.374 | – | 0.715 | 0.689 | 0.63 | 0.621 | 0.713 | 0.709 | 0.689 | 0.772 | 0.652 | 0.812 | 0.828 | 0.74 | 0.885 |
| NCI-H460 | 0.0673 | 0.0618 | 0.0662 | 0.0757 | 0.0781 | 0.339 | 0.363 | 0.23 | 0.312 | 0.378 | 0.114 | 0.169 | 0.184 | 0.0996 | 0.341 | 0.406 | 0.331 | 0.452 | 0.434 |
| LOU-NH91 | 0.446 | 0.409 | 0.341 | 0.446 | 0.367 | 0.568 | 0.532 | 0.528 | 0.53 | 0.531 | – | 0.783 | 0.763 | 0.864 | 0.877 | 1.01 | 0.872 | 0.959 | 0.877 |
| NCI-H2170 | 0.263 | 0.252 | 0.213 | 0.271 | 0.268 | 0.312 | 0.288 | 0.325 | 0.376 | 0.357 | 0.921 | 0.879 | 0.985 | 0.973 | 0.624 | 0.617 | 0.571 | 0.687 | 0.528 |
| LU99A | 0.198 | 0.173 | 0.173 | 0.232 | 0.133 | 0.268 | 0.303 | 0.32 | 0.357 | 0.317 | 0.555 | 0.559 | 0.475 | 0.599 | 0.255 | 0.225 | 0.248 | 0.262 | 0.266 |
| ChaGo-K-1 | 0.264 | 0.259 | 0.236 | 0.231 | 0.254 | 0.548 | 0.644 | 0.683 | 0.47 | 0.966 | 0.894 | 0.865 | 0.848 | 0.802 | 0.388 | 0.443 | 0.396 | 0.439 | 0.45 |
| NCI-H358 | 0.189 | 0.167 | 0.168 | 0.166 | 0.174 | 0.374 | 0.352 | 0.373 | 0.354 | 0.32 | 0.125 | 0.135 | 0.173 | 0.176 | 0.4 | 0.654 | 0.531 | 0.562 | 0.587 |
| SW 1573 | 0.781 | 0.788 | 0.807 | 0.789 | 0.725 | 0.489 | 0.458 | 0.43 | 0.461 | 0.467 | 0.468 | 0.55 | 0.593 | 0.596 | 0.51 | 0.464 | 0.502 | 0.439 | 0.384 |
| LK-2 | 0.232 | 0.279 | 0.219 | 0.275 | 0.247 | 0.583 | 0.782 | 0.597 | 0.515 | 0.659 | 0.756 | 1.04 | 0.817 | 0.718 | 0.568 | 0.899 | 0.883 | 0.822 | 0.753 |
| NCI-H596 | 0.441 | 0.419 | 0.473 | 0.452 | 0.479 | 0.4 | 0.439 | 0.409 | 0.389 | 0.466 | 0.818 | 0.751 | 0.785 | 0.904 | 0.594 | 0.683 | 0.695 | 0.539 | 0.658 |
| NCI-H1650 | 0.394 | 0.408 | 0.324 | 0.336 | 0.28 | 0.524 | 0.524 | 0.645 | 0.621 | 0.508 | 0.791 | 0.583 | 0.525 | 0.43 | 0.716 | 1.03 | 0.742 | 0.759 | 0.645 |
| NCI-H1437 | 0.347 | 0.294 | 0.357 | 0.329 | 0.259 | 0.439 | 0.359 | 0.473 | 0.462 | 0.399 | 0.458 | 0.502 | 0.392 | 0.356 | 0.616 | 0.74 | 0.668 | 0.641 | 0.606 |
| PC-3 [JPC-3] | 1.08 | 1.09 | 1.11 | 1.04 | 1 | 0.642 | 0.73 | 0.772 | 0.748 | 0.754 | 0.662 | 0.641 | 0.713 | 0.633 | 1.11 | 1.37 | 1.15 | 1.23 | 1.24 |
